According to US20070141571A1, “Diagnostics and therapeutics for diseases associated with endothelial differentiation, sphingolipid g-protein-coupled receptor 6(edg6)” (BAYER HEALTHCARE AG, priority 2003, published 2007):

Experiments:
Edg-6 [1] = molecular target: T1, Edg-6 (Homo sapiens, UniProt O95977); conditions: Edg-6-transfected CHO and K562 cells; cited from earlier work
T1 construct: host or cells: Edg-6-transfected Chinese hamster ovary (CHO) cells and K562 cells
T1 sequence (O95977 1-384): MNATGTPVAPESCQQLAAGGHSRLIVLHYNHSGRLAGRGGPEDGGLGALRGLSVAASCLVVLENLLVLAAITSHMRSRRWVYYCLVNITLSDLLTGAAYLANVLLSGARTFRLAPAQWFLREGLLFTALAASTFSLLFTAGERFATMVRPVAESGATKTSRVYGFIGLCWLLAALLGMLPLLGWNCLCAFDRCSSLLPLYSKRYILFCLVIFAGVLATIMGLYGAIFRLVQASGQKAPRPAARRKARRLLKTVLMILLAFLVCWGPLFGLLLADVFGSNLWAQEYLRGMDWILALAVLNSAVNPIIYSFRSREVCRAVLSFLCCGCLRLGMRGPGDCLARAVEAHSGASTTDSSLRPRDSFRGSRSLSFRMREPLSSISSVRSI

Edg-6 [2] = molecular target: T1, Edg-6; conditions: cited from earlier work; for increase in cytosolic Ca(2+) concentration: Edg-6-transfected CHO cells compared with vector-transfected cells
HEL cells = experiment: morphogenesis assay, HEL parental cells; type: cell-based, human; conditions: PMA 10 nM, 72 hours
Description: Small particles (arrowhead) and a particle about to bud off from the cytosolic extension (arrow) are seen in HEL/S1P4 treated with PMA.
As reported, HEL parental cells develop into polyploidal large adherent cells with PMA treatment. […] Depositions of small particles and particles about to bud off from the end of the projections were also observed (FIG. 7). […] The observed prominent change of phenotype, thus can potentially be attributed to a rapid accumulation of S1P after treatment of PMA. As PMA is a pleiotropic substance, it is not easy to elucidate direct roles of sphingosine kinase in the phenomena.
Morphogenesis assay: Ten million cells were plated on a 24-well plate with or without 30 μM of the Rho-kinase inhibitor Y27632 (Calbiochem, CA). PMA (10 nM final) was added to the culture 30 minutes after plating. Cells were cultured for 72 hours and photographed. For studies using C3 exoenzyme, 2×10^5 cells in 0.5 ml culture medium were plated on a 24-well plate with or without 3 μg/ml of C3 exsoenzyme (Upstate, N.Y.), and cultured overnight. Fresh culture medium containing PMA and C3 exoenzyme was added to each well to give final PMA and C3 exoenzyme concentrations at 10 nM and 3 μg/ml, respectively. Cells were cultured for 72 hours and photographed.

HEL/EDG6 cells [3] = experiment: morphogenesis assay, HEL/EDG6; type: cell-based, human; conditions: 72 hours
Experimental: (§1) To obtain an insight into potential mechanisms, we treated HEL/EDG6 and HEL/CV with a variety of cytoskeletal modulators in the presence of PMA. […] To test if suppression of the Rho-kinase pathway is responsible for the formation of cytosolic extensions, the cells were treated with C3 exoenzyme, a Rho inhibitor, before PMA treatment. […] Alternatively, activation of other Rho family GTPases might cause the process formation, since reciprocal regulation between Rho and Rac/Cdc42 is observed in some cell types [E. E. Sandera, et al., (1999)]. Activation of Rho, Rac, and Cdc42, were investigated in HEL/CV and HEL/EDG6 after serum starvation and subsequent stimulation with S1P.

[4] = system: HEL/EDG6 platelet-like particles; experiment: PF4 release from platelet-like particles; type: cell-based, human; conditions: 100 nM PMA or 50 μM ADP 10 min; 0.5 units/ml thrombin 2 min; data not shown
Experimental: During propagation of HEL/EDG6, we observed an accumulation of small particles in the culture supernatant. They were harvested by two-step sedimentation centrifugation and analyzed. […] In order to investigate if the platelet-like particles were functional, they were stimulated and the release of Platelet Factor IV (PF4) was measured as a platelet functional marker. […] The low sensitivity to ADP raised a question about the full functionality of the particles as platelets. In order to examine whether it is due to lack of the appropriate ADP receptors, we performed RT-PCR analysis. There are two ADP receptors identified in platelets, ubiquitous P2Y1, and platelet-specific P2Y12. We detected P2Y1 expression in HEL cells stably transformed with an empty vector (HEL/CV), HEL/EDG6, and platelets. In contrast, P2Y12 was detected in HEL/EDG6 and platelets, but not in HEL/CV. […] The low responsiveness of the particles to ADP thus is likely due to desensitization of the ADP receptors, since the particles were prepared from a long-term culture and had been inevitably exposed to cellular components during culture. Alternatively the density of the particles may not have been high enough to exert a positive feedback amplified by mediators released from nearby particles.
Isolation of platelets and platelet-like particles: Blood from healthy donors was collected into centrifuge tubes containing 20 mM sodium dyhydrogenphosphate dehydrate, 17 mM citric acid, 90 mM sodium citrate, and 13 mM Dextrose. HEL/S1P4 cells were cultured until cells released cytoplasmic particles (typically 10-18 days). Preparations were centrifuged at 200 g for 15 minutes. Supernatants obtained were centrifuged at 1600 g for 15 minutes. Sediments containing platelets or platelet-like particles were used in the experiments.
PF4 release: Platelet-like particles were suspended in Dulbecco's modified Eagle medium (DMEM) and stimulated with 100 nM PMA or 50 μM ADP for 10 minutes. […] Platelet factor 4 in supernatants was measured with ZymutestPF4 enzyme-linked immunosorbent assay (Hyphen BioMed, France).

HEL/CV cells [5] = experiment: morphogenesis assay, HEL/CV; type: cell-based, human; conditions: with PMA 10 nM, Y27632 30 μM or C3 exoenzyme 3 μg/ml, 72 hours
Experimental: as §1

HEL/CV cells [6] = experiment: Rho, Rac and cdc42 assays, HEL/CV; type: cell-based, human; conditions: serum starvation, 1 μM S1P 1 minute
Experimental: as §1
(§2) Rho, Rac and cdc42 assays: Cells (5×10^6 for Cdc42 and Rac, 1×10^7 for Rho) were harvested and lysed with 50 mM Tris (pH 7.5), 100 mM NaCl, 1% Triton X-100, 5 mM MgCl2 containing protease inhibitors (Complete™, EDTA-free, Roche Diagnostics, Germany). Cell lysates were clarified by centrifugation at 15000 g at 4° C. for 5 minutes, and incubated with PAK-1 PBD agarose, Rhotekin RBD agarose (Upstate, N.Y.) and GST-WASP GBD beads idndly provided by Tatsuo Kinashi, Kyoto University) at 4° C. for 45 minutes with constant rotation. […] The amounts of Rho, Rac, cdc42, and WASP in 20 μg of whole cell lysates were also analyzed by Western Blot. After incubating with HRP-conjugated secondary antibodies, the blots were developed with ECL-Plus (Amersham Biosciences, UK). For examination of Rho, Rac and cdc42 responses to S1P treatment, cells were maintained in RPMI1640 containing 0.1% fatty-acid free BSA (Sigma) overnight. Cells were harvested and suspended in PBS, and stimulated with 1 μM S1P at 37° C. for 1 minute before cell lysis. Rho, Rac, and cdc42 in 20 μg of the whole cell lysates were also analyzed by Western blot for examination of protein expression. WASP in 20 μg of the whole cell lysates was detected using an anti-WASP antibody (Sigma, Mo.).

[7] = system: CD34+ hematopoietic progenitor cells; experiment: megakaryocyte colony formation assay; type: cell-based, human
Experimental: Mean colony number per well of CD41 positive (CFU-MK) and negative (non-MK) colonies are plotted with SD (n=4 to 8, left panels). […] The experiment was repeated twice with each progenitor and obtained similar results. # • (B) Megakaryocyte differentiation was induced for 12 days from the CD34^+ progenitor cells and the cells were separated for CD41 expression. RNAs from non-differentiated cells (Day 0), differentiated cells (Day 12), and peripheral platelets were analyzed for expression of S1P receptors by RT-PCR. Expression of 2-microglobulin is shown as an internal control.
S1P was added to a megakaryocyte colony formation assay using CD34^+ hematopoietic progenitor cells in semi-solid culture. […] In order to examine the expression pattern of each S1P receptor during the in vitro maturation of megakaryocytes, CD34^+ progenitor cells were cultured in a liquid medium defined for megakaryocyte development, sorted for CD41 expression on day 12 of the culture, and subjected to RT-PCR analysis. Expression of S1P5 receptor in CD34^+ cells on day 0 was low and S1P1, S1P2, S1P3, and EDG6 were not detectable after 40 cycles (FIG. 6B). […] The pattern matched, although with different relative band intensities for EDG6 and S1P2, with the one seen in the platelet sample. […] The exact mechanisms by which S1P affects the differentiation however, remain to be elucidated. Among the receptors for S1P, we were most interested in the function of EDG6 in megakaryocytopoiesis, because EDG6 is expressed in the lung, and the lung is the second most prominent site of platelet production in body with a large population of terminally differentiated megakaryocytes in pulmonary microvessels. […]
Colony formation assay and preparation of CD41^+ cells: Cord blood CD34^+ cells and bone marrow CD34^+ cells (Bio Whittaker, Md.) were cultured in serum-free Iscove's modified Dulbecco's medium for 2 days. […] The chambers were incubated at 37° C. in a 5% CO2 atmosphere for 12 days then megakaryocyte colonies (CFU-MK) were stained for CD41 and scored following the manufacturer's procedure. […]

HEL/EDG6 cells [8] = experiment: Rho, Rac and cdc42 assays, HEL/EDG6; type: cell-based, human; conditions: HEL/EDG6, serum starvation, 1 μM S1P 1 minute
Experimental: as §1, §2

CCCCCCCCCCCCC/C=C/[C@@H](O)[C@@H](N)COP(=O)([O-])OCC[N+](C)(C)C [SPC]
displacement of [(3)H]S1P binding (Edg-6 [1]): displaced the [(3)H]S1P binding | increase in cytosolic Ca(2+) concentration (Edg-6 [2]): clearly enhanced

CCCCCCCCCCCCCC(=O)O[C@@H]1[C@@H](C)[C@@]2(O)[C@@H](C=C(CO)C[C@]3(O)C(=O)C(C)=C[C@@H]23)[C@@H]2C(C)(C)[C@]12OC(C)=O [PMA]
cell morphology after PMA treatment (HEL cells): induced large adherent cells | cell morphology after PMA treatment (HEL/EDG6 cells [3]; HEL/EDG6, PMA 10 nM): formation of polyploidal large adherent cells with extended cytoplasmic projections resembling megakaryocyte processes | release of Platelet Factor IV (PF4) [4]: significant amounts

C[C@@H](N)[C@H]1CC[C@H](C(=O)Nc2ccncc2)CC1 [Y27632]
cytosolic extensions / morphology with cytoskeletal modulator (HEL/EDG6 cells [3]; HEL/EDG6, with PMA 10 nM, Y27632 30 μM or C3 exoenzyme 3 μg/ml): did not induce any further effect | cytosolic extensions / morphology with cytoskeletal modulator (HEL/CV cells [5]): induced cytosolic extensions

thrombin
release of Platelet Factor IV (PF4) [4]: significant amounts

lysophosphatidic acid [LPA]
displacement of [(3)H]S1P binding (Edg-6 [1]): inactive | increase in cytosolic Ca(2+) concentration (Edg-6 [2]): without change

pertussis toxin
effect on lipid-induced actions (S1P, SPC) (Edg-6 [2]; CHO and K562 cells expressing Edg-6, pertussis toxin treatment): markedly suppressed

CCCCCCCCCCCCC/C=C/[C@@H](O)[C@@H](N)COP(=O)(O)O [S1P, sphingosine 1-phosphate]
displacement of [(3)H]S1P binding (Edg-6 [1]): displaced the [(3)H]S1P binding | GTP-Rac (HEL/CV cells [6]): up-regulation | GTP-Cdc42 increase (HEL/CV cells [6]; data not shown): not in HEL/CV cells | GTP-Rho decrease (HEL/CV cells [6]; data not shown): not in HEL/CV cells | number of megakaryocyte colony forming units (CFU-MK) ([7]; 10 μM S1P at beginning of culture, CD34+ cells from bone marrow and cord blood, 12 days): significantly reduced | CFU-nonMK numbers ([7]; 10 μM S1P, CD34+ cells from bone marrow and cord blood): remained unchanged or increased slightly | % CFU-MK ([7]; 10 μM S1P, cord blood or bone marrow CD34+ cells, Student's t-test): Significantly lower | increase in cytosolic Ca(2+) concentration (Edg-6 [2]): clearly enhanced | GTP-Rac (HEL/EDG6 cells [8]): up-regulation | GTP-Cdc42 (HEL/EDG6 cells [8]; data not shown): increased | GTP-Rho (HEL/EDG6 cells [8]; data not shown): decreased

Nc1ncnc2c1ncn2[C@@H]1O[C@H](COP(=O)(O)OP(=O)(O)O)[C@@H](O)[C@H]1O [ADP]
release of Platelet Factor IV (PF4) [4]: only minor amounts
